Results from patent publication US11285159B2 (AbbVie Inc., priority 2019, dated 2022).
Where two headings read alike, the source gives them in different places.

What was measured:
[1] = test system: myeloproliferative neoplasm cells; endogenous erythroid colonies representing malignant PV clones; conditions: cited from earlier work
[2] = test system: myeloproliferative neoplasm patient samples cultured ex vivo and myeloproliferative neoplasm-derived cell lines bearing the activating JAK-2 V617F mutation; conditions: cited from earlier work
[3] = test system: tumors in mice bearing the Eμ-TEL-JAK-2 transgene or PDX mice bearing JAK-2-mutated B-ALL cells; conditions: cited from earlier work
BCL-W = molecular target: T1, BCL-W (Homo sapiens, UniProt Q92843); conditions: cited from earlier work
T1 sequence (Q92843 1-193): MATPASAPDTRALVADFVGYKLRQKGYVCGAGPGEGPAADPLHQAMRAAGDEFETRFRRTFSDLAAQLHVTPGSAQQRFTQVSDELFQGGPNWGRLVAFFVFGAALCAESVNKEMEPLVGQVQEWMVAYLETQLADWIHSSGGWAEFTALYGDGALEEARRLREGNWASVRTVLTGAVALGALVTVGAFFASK

platelets [4] = assay: exposure-platelet response model, parameter estimation (NONMEM); parameters: species or system human
Excerpt: The model was based on established models described in the literature (Kaefer, A., Yang, J., Noertersheuser, P. et al. Cancer Chemother Pharmacol (2014) 74: 593. doi:10.1007/s00280-014-2530-2530; and Friberg, Lena E., et al. “Model of chemotherapy-induced myelosuppression with parameter consistency across drugs. “Journal of clinical oncology 20.24 (2002): 4713-4721, both references hereby incorporated by reference in their entireties).
PK model for ruxolitinib was described by a two-compartment model with a lag-time in absorption (Equations 2a through 2c).
The time course of platelet response was modeled using a semi-physiological model that comprised a progenitor cell compartment, three transition compartments representing the maturation chain in the bone marrow and a peripheral blood compartment (see FIG. 2). A feedback system was used in this model to describe the increase in the maturation rate in bone marrow when the platelet level in the blood compartment is below baseline and decrease in the maturation rate when the platelet level in blood is above baseline. […] Equations 3 to 9 represent the PD model.
The model is initialized at 0 for the PK related compartments, at POOL for the PROLIF compartment, and at 1 for the maturation and circulation compartments. The platelet prediction is obtained by (Baseline Platelets)×PLT1×PLT2. The rates of the Platelet1 model are set to be the same ktrans=kin=kout due to a steady state assumption without treatment interference.
A factor was included on the baseline platelet count such that baseline(t=−84 days)=factor×baseline(t=0 days)
This yields a relative pseudo baseline at initiation of ruxolitinib (referred to as ‘ruxolitinib factor’ on baseline platelet count). […] The first 56 days of data were fitted to avoid influence of long-term disease effects on the model.
No inter-individual variability was estimated on ruxolitinib EC50 since limited data precluded its appropriate estimation.

[5] = co-administration of navitoclax with rifampin; type: in vivo, human; conditions: 600 mg once daily rifampin for 4 days; 11 subjects with cancer
Excerpt: Increased dosage should be made with frequent monitoring of safety and efficacy.

[6] = test system: 22 cell lines consisting of multiple leukemia and lymphoma types spanning both B-cell and T-cell malignancies; conditions: cited from earlier work
[7] = test system: subjects with primary or secondary myelofibrosis; assay: Phase 2 study of navitoclax in combination with ruxolitinib (Example 1)
Excerpt: Treatment continued until the end of clinical benefit, unacceptable toxicity, or discontinuation. The primary efficacy endpoint was percentage reduction in splenic volume from baseline. Secondary endpoints included effect on total symptom score (TSS), overall response rate, rate of anemia response, improvement in bone marrow fibrosis, and safety profile.
For this study, inclusion criteria included the following: • 1. Subject must be ≥18 years of age. • 2. Subject has documented diagnosis of Intermediate or High-Risk Primary Myelofibrosis, Post-Polycythemia Vera Myelofibrosis (PPV-MF), or Post-Essential Thrombocythemia Myelofibrosis (PET-MF) as defined by the World Health Organization classification. • 3. Subject must be ineligible or unwilling to undergo stem cell transplantation at time of study entry. • 4. Subject must have an Eastern Cooperative Oncology Group (ECOG) Performance Score of 0, 1, or 2. • 5. […] Prior treatment with JAK-2 inhibitor for at least 12 weeks • b. Prior treatment with JAK-2 inhibitor for at least 28 days complicated by any of the following: • i. […] Splenic irradiation within 6 months prior to screening, or prior splenectomy. • 2. Leukemic transformation (>10% blasts in peripheral blood or bone marrow biopsy). • 3. Subject is currently on medications that interfere with coagulation (including warfarin) or platelet function with the exception of low dose aspirin (up to 100 mg) and low-molecular-weight heparin (LMWH). • 4. Prior therapy with a BH3 mimetic compound. • 5.
Subjects needed to have received ruxolitinib therapy for at least 12 weeks prior to study enrollment without interruption, have splenomegaly as defined by a spleen palpable ≥5 cm below costal margin and be currently on a stable dose of ≥10 mg BID of ruxolitinib.

[8] = test system: human tumor cell lines derived from small cell lung carcinomas and lymphoid malignancies; conditions: read-out: EC50, mechanism-based cytotoxicity; cited from earlier work
platelets [9] = conditions: effect on platelets, cited from earlier work; for Ruxolitinib EC50: fixed to published value
spleen volume [10] = assay: exposure-spleen volume response model, parameter estimation (NONMEM); parameters: species or system human; conditions: spleen volume inhibition; R/R MF, cohort 1a data
Excerpt: Spleen volume data up to only week 40 was used in the model to improve model predictability. […] Inter-individual variability with full correlation matrix was incorporated on estimated baseline spleen volume, kout, EC50NAV and EC50RUX using exponential function and the residual variability was characterized using combined proportional and additive error model.
At baseline, the rates of the spleen volume model are set to be the same kin=kout due to a theoretical steady state assumption without treatment interference. This leads to an initial condition for the SV compartment of 1, where SV predictions are derived by multiplying this compartment with baseline. Disease progression was included in the model with the factor “Eprog” on “kin”.

[11] = test system: resistance to JAK-2 inhibitors associated with BCL-XL elevation; conditions: cited from earlier work
[12] = 400 mg once daily ketoconazole; 10 subjects with cancer; cited from earlier work
spleen volume [13] = conditions: spleen volume inhibition, fixed to a published value, cited from earlier work
[14] = test system: patients with intermediate or high-risk primary or secondary myelofibrosis; conditions: ruxolitinib monotherapy; cited from earlier work
[15] = 22 subjects with ruxolitinib dose reduction

## CN(C)CC[C@H](CSc1ccccc1)Nc1ccc(S(=O)(=O)NC(=O)c2ccc(N3CCN(Cc4ccccc4-c4ccc(Cl)cc4)CC3)cc2)cc1[N+](=O)[O-] [ABT-737]
[1]; 500 nM ABT-737
  endogenous erythroid colonies growing in the absence of erythropoietin: significantly inhibited
[1]; 100-300 nM ABT-737 combined with a JAK-2 inhibitor
  endogenous erythroid colonies growing in the absence of erythropoietin: further suppressed
[1]
  proliferation of myeloproliferative neoplasm cells: ability to block the proliferation
[2]
  cell killing activity: cell killing activity

## CC1(C)CCC(c2ccc(Cl)cc2)=C(CN2CCN(c3ccc(C(=O)NS(=O)(=O)c4ccc(N[C@H](CCN5CCOCC5)CSc5ccccc5)c(S(=O)(=O)C(F)(F)F)c4)cc3)CC2)C1 [Navitoclax, 4-(4-{[2-(4-chlorophenyl)-5,5-dimethyl-1-cyclohexen-1-yl]methyl}-1-piperazinyl)-N-[(4-{[(2R)-4-(4-morpholinyl)-1-(phenylsulfanyl)-2-butanyl]amino}-3-[(trifluoromethyl)sulfonyl]phenyl)sulfonyl]benzamide]
[3]; combination of navitoclax and a JAK-2 inhibitor vs either agent alone
  survival of mice with JAK-2-mutated tumors: superior to either agent alone
[3]; navitoclax added to a JAK-2 inhibitor
  growth of tumors: significantly slowing the growth of tumors
BCL-W
  Ki: ≤ 1 nM
Platelets [4]; effect on platelets, fitted to data of 34 subjects
  Navitoclax EC50, estimate and 95% confidence interval: 3.61 (1.97; 6.58) mg/L
[5]
  decrease of navitoclax AUC∞: 41%
  decrease of navitoclax Cmax: 16%
[6]
  cell lines with potent single agent activity: 10 of 22
[7]; human, in vivo
  Dose Delay/Interruption: More Than One Interruption, %: (39.1) %
  Dose Delay/Interruption: No Interruption, %: (34.8) %
  Dose Delay/Interruption: Only One Interruption, %: (26.1) %
  Dose Reduction: More Than One Dose Reduction, %: (39.1) %
  Dose Reduction: No Dose Reduction, %: (17.4) %
  Dose Reduction: Only One Dose Reduction, %: (43.5) %
  Reasons for Dose Delay/Interruption: Adverse Events, %: (52.2) %
  Reasons for Dose Delay/Interruption: Anemia, %: (4.3) %
  Reasons for Dose Delay/Interruption: Diarrhea, %: (4.3) %
  Reasons for Dose Delay/Interruption: Other adverse events, %: (17.4) %
  Reasons for Dose Delay/Interruption: Thrombocytopenia, %: (34.8) %
  Reasons for Dose Reduction: Adverse Events, %: (73.9) %
  Reasons for Dose Reduction: Anemia, %: (17.4) %
  Reasons for Dose Reduction: Diarrhea, %: (8.7) %
  Reasons for Dose Reduction: Other adverse events, %: (30.4) %
  Reasons for Dose Reduction: Thrombocytopenia, %: (47.8) %
[7]; in vivo
  Reasons for Dose Delay/Interruption: Other (non-adverse event), %: (30.4) %
  Reasons for Dose Reduction: Other (non-adverse event), %: (17.4) %
[8]
  EC50: ≤ 1000 nM
[2]
  cell killing activity: cell killing activity
Platelets [9]; fixed, based on Kaefer et al.
  Navitoclax Emax: 5
Spleen volume [10]
  Navitoclax EC50, estimate: 4.37 µg/mL
[11]
  overcoming resistance to JAK-2 inhibitors: ability to overcome that resistance
[12]
  impact on navitoclax Cmax: no impact
  increase of navitoclax AUC∞: 1.55 fold

## N#CC[C@H](C1CCCC1)n1cc(-c2ncnc3[nH]ccc23)cn1 [Ruxolitinib, (R)-3-(4-(7H-pyrrolo[2,3-d]pyrimidin-4-yl)-1H-pyrazol-1-yl)-3-cyclopentylpropanenitrile]
Platelets [4]
  ruxolitinib factor for relative pseudo baseline platelet count: 1.53 fold
Platelets [4]; at average ruxolitinib concentration
  drop in platelet count: ~36%
Platelets [4]; pseudo baseline at initiation of ruxolitinib relative to baseline at initiation of navitoclax
  BaselineFactor (ruxolitinib factor on baseline platelet count), estimate and 95% confidence interval: 1.53 (1.41; 1.65)
[7]; [15]
  ruxolitinib dose reductions due to anemia: 18.2%
  ruxolitinib dose reductions due to thrombocytopenia: 86.4%
[7]; 25 subjects enrolled on ruxolitinib >10 mg BID
  subjects whose ruxolitinib dose was reduced to 10 mg BID: 88%
Platelets [9]
  Ruxolitinib EC50: 0.0825 µg/mL
Platelets [9]; listed as ruxolitinib
  Ruxolitinib EC50: 0.08248 µg/mL
Platelets [9]; fixed, assumed (JAKAFI approval package)
  Ruxolitinib Emax: 1
Spleen volume [13]
  Ruxolitinib Emax: 0.765 fixed
Spleen volume [13]; listed as ruxolitinib
  Ruxolitinib Emax: 0.765
[14]
  patients achieving spleen volume reduction of ≥35% (SVR35): approximately 40%
  time after start of monotherapy within which SVR35 is typically observed: ≤ 12 weeks
Spleen volume [10]
  Ruxolitinib EC50, estimate: 0.0144 µg/mL
